Data as given in publication PMC9049830 (RSC Advances, 2020).
“And” between values parts separate entries of the source, which are not always exact repeats. Equal entries are not always repeated. Marks after values point to notes of the source that are not given here.

Assays:
[1] = Thermal stability by TG analysis; assay type: physicochemical
[2] = n-octanol/water and n-octanol/phosphate buffer partition coefficient; assay type: physicochemical; details: for log PpH=5.4: n-octanol/phosphate buffer pH 5.4, 25 °C; for log PpH=7.4: n-octanol/phosphate buffer pH 7.4, 25 °C
[3] = Skin permeation studies in Franz diffusion cells; assay type: in vitro ADME, porcine; details: after 24 h permeation from ethanolic solution into acceptor phase
[4] = Accumulation in the skin after 24 h permeation; assay type: in vitro ADME, porcine; details: after 24 h skin permeation from ethanolic solution; for Skin accumulation: acceptor fluid pH 7.4, n = 3
[5] = Britton–Robinson buffer at pH 7.4 as acceptor and donor solution; cited from earlier work
[6] = known ibuprofen salts; cited from earlier work
[7] = Solubility in organic solvents by modified Vogel's method; assay type: physicochemical; details: 25 °C
Solubility = assay type: physicochemical; details: for Solubility in water: deionised water, 25 °C; for Solubility in phosphate buffer pH = 5.4: pH 5.4, 25 °C; for Solubility in phosphate buffer pH = 7.4: pH 7.4, 25 °C
L929 cell lines = details: high concentrations; cited from earlier work

Row | Molecule | T onset, the onset temperature of the thermal degradation [1] [°C] | log PpH=5.4 [2] | log PpH=7.4 [2] | logP ([2]; n-octanol/water) | Permeation as % applied dose of IBU [3] [%] | Skin accumulation as % applied dose of IBU [4] [%] | Skin accumulation [4] | Flux [5] [μg cm^−2 h^−1] | log P [6] | Increase in flux compared to IBU [5] | Solubility in hexane (in words) [7] | Solubility in water (Solubility) [g dm^−3] | Solubility in phosphate buffer pH = 5.4 (Solubility) [g dm^−3] | Solubility in phosphate buffer pH = 7.4 (Solubility) [g dm^−3] | Decrease of viability (L929 cell lines) [%]
1 | CC(C)Cc1ccc(C(C)C(=O)O)cc1 (racemic) [rac-IBU, 2-(4-isobutylphenyl)-propionic acid, reference compound] | 189.8 | 3.192 | 1.284 | 2.415 ± 0.001 | 6.06 | 3.1 | 745.69 ± 61.87 μg IBU g^−1 | 0.542 | – | – | – | – | – | – | –
2 | CC(C)Cc1ccc(C(C)C(=O)[O-])cc1.CCCCn1cc[n+](C)c1 (stereo not shown) [[BMIm][IBU]] | – | – | – | – | – | – | – | – | 1.15 | – | – | – | – | – | –
3 | CC(C)Cc1ccc(C(C)C(=O)[O-])cc1.CCCCCCCCCC[N+](C)(C)CCCCCCCCCC [[N1,1,10,10][IBU]] | – | – | – | – | – | – | – | – | 1.87 | four–five-fold | – | – | – | – | –
4 | CC(C)Cc1ccc(C(C)C(=O)[O-])cc1.CCCCCC[N+](CCCCCC)(CCCCCC)CCCCCC [[N6,6,6,6][IBU]] | – | – | – | – | – | – | – | – | 2.47 | four–five-fold | – | – | – | – | –
5 | CC(C)Cc1ccc(C(C)C(=O)[O-])cc1.CCCC[P+](CCCC)(CCCC)CCCC [[P4,4,4,4][IBU]] | – | – | – | – | – | – | – | – | 1.54 | – | – | – | – | – | –
6 | CC(C)Cc1ccc(C(C)C(=O)O)cc1.CCCCCOC(=O)[C@@H](N)C(C)C [[ValOAm][IBU], L-valine pentyl ester ibuprofenate] | 129.8 | 2.421 ± 0.002 | 1.259 ± 0.001 | – | 11.79 | – | 565.60 ± 71.09 ^a μg IBU g^−1 | – | – | – | partly soluble (partly soluble when 33–100 mg of compound dissolved in 1 cm^3) | 1.798 ± 0.019 | 1.380 ± 0.007 | 1.931 ± 0.008 | –
7 | CC(C)Cc1ccc(C(C)C(=O)O)cc1.CCCCOC(=O)[C@@H](N)C(C)C [[ValOBu][IBU], L-valine butyl ester ibuprofenate] | 119.9 | – | – | – | 10.66 | 7.0 | 815.14 ± 58.92 ^b μg IBU g^−1 | – | – | – | – | 3.125 ± 0.007 | 2.371 ± 0.016 | 3.089 ± 0.015 | –
8 | CC(C)Cc1ccc(C(C)C(=O)O)cc1.CCOC(=O)[C@@H](N)C(C)C [[ValOEt][IBU], L-valine ethyl ester ibuprofenate] | 89.5 | 2.023 ± 0.001 | 1.026 and 1.026 ± 0.001 | – | 7.33 | 3.5 | 412.19 ± 38.45 μg IBU g^−1 | – | – | – | – | 5.542 ± 0.007 | 3.969 ± 0.056 | 5.206 ± 0.044 | –
9 | CC(C)Cc1ccc(C(C)C(=O)O)cc1.CCCCCCOC(=O)[C@@H](N)C(C)C [[ValOHex][IBU], L-valine hexyl ester ibuprofenate] | 128.9 | 2.880 ± 0.011 | 1.279 and 1.279 ± 0.001 | – | 9.81 | – | 612.86 ± 129.33 ^a μg IBU g^−1 | – | – | – | soluble (soluble when more than 100 mg of compound was soluble in 1 cm^3) | 1.058 ± 0.002 | 0.759 ± 0.006 | 1.233 ± 0.001 | –
10 | CC(C)Cc1ccc(C(C)C(=O)O)cc1.CCCOC(=O)[C@@H](N)C(C)C [[ValOPr][IBU], L-valine propyl ester ibuprofenate] | 109.5 | 2.061 ± 0.001 | 1.197 ± 0.003 | – | 13.55 | 5.9 | 726.42 ± 113.37 ^a μg IBU g^−1 | – | – | – | – | 4.221 ± 0.033 | 3.057 ± 0.045 | 5.367 ± 0.019 | –
11 | CCOC(=O)[C@@H]1CCCN1 [proline ethyl ester] | – | – | – | – | – | – | – | – | – | – | – | – | – | – | 20
12 | L-valine isopropyl ester ibuprofenate [[ValOiPr][IBU]] | 90.2 | 2.186 ± 0.001 | 1.172 ± 0.001 | – | 12.09 | 4.9 | 630.75 ± 61.87 ^a μg IBU g^−1 | – | – | – | – | – | – | – | –
